Values of other authors, collected in article PMC11436104 (Toxins, 2024).

System: rat primary astrocytes
Settings: cited from earlier work

MC-LF
cytotoxicity in rat primary astrocytes: selective cytotoxicity
